Earlier results as cited in US20130309220A1, “COMPOSITIONS FOR TREATING MICROBIAL INFECTIONS” (priority 2012, published 2013).

CCC(=O)O[C@]1(C(=O)SCF)[C@H](C)C[C@H]2[C@@H]3C[C@H](F)C4=CC(=O)C=C[C@]4(C)[C@@]3(F)[C@@H](O)C[C@@]21C [Fluticasone propionate, S-(fluromethyl)6α,9-difluoro-11β-17-dihydroxy-16α-methyl-3-oxoandrosta-1,4-diene-17β-carbothioate,17-propionate]
solubility in 95% ethanol (95% ethanol): slightly soluble | solubility in dimethyl sulfoxide (dimethyl sulfoxide): freely soluble | solubility in dimethylformamide (dimethylformamide): freely soluble | solubility in methanol (methanol): slightly soluble | solubility in water (water): practically insoluble
